Results on 22 compounds are retold here after patent publication US8633206B2, “Pyrrolo[2,3-D]pyrimidine compounds” (Pfizer Inc., priority 2009, dated 2014).

What all share (assay type): biochemical
One assay has as its target JAK2 (Homo sapiens (Human), UniProt O60674). The assay is described as follows: JAK enzymatic assay (peptide mobility shift), JAK2. The conditions noted are these: recombinant JAK2 2 nM, JAKtide peptide, 150 minutes.
Another assay has as its target JAK3 (Homo sapiens (Human), UniProt P52333). The experiment in a line: JAK enzymatic assay (peptide mobility shift), JAK3. The settings on record: recombinant JAK3 1 nM, JAKtide peptide, 90 minutes.
The next assay addresses JAK1 (Homo sapiens (Human), UniProt P23458). The experiment in a line: JAK enzymatic assay (peptide mobility shift), JAK1. The settings on record: recombinant JAK1 20 nM, IRS-1 peptide, 240 minutes.

JAK2, sequence (O60674 808-1132): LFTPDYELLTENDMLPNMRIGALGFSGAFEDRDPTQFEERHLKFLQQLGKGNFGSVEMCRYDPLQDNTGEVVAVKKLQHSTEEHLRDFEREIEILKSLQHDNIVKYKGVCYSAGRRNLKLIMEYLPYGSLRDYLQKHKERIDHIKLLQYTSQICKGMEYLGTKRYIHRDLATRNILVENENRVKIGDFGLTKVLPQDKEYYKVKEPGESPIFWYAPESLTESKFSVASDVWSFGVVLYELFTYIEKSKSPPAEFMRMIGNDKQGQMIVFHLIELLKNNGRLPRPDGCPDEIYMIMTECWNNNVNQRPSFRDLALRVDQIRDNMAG
JAK1, sequence (P23458 whole entry): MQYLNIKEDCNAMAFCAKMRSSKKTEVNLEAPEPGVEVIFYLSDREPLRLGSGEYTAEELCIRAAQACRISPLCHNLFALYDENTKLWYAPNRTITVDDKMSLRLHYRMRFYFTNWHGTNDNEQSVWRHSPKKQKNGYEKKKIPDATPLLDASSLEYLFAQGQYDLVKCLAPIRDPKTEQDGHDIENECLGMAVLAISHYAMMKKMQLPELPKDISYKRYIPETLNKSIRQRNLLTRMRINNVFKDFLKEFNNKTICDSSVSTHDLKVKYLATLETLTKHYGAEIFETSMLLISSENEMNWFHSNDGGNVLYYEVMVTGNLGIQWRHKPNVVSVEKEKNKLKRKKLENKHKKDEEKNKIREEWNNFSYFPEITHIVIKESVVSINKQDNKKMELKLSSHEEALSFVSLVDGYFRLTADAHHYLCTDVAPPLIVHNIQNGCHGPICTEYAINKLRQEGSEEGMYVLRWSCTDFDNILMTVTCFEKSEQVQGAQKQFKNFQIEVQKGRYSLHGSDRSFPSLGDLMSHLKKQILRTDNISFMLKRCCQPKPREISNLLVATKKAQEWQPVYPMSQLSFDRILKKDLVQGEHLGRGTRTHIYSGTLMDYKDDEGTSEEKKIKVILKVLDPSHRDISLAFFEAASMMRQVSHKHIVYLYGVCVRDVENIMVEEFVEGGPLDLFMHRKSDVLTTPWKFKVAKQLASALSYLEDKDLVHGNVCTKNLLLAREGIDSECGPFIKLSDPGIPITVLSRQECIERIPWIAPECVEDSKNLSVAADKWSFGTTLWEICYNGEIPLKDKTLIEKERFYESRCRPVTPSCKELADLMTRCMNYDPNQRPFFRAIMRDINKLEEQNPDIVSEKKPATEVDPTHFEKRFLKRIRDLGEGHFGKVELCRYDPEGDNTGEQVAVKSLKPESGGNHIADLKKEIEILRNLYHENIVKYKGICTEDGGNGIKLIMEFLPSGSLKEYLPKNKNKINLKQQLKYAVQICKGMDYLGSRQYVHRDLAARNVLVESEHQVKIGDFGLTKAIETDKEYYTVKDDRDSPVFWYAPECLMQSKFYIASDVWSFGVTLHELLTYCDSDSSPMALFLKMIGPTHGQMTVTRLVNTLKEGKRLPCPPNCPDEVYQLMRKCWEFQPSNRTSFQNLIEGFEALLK
JAK3, sequence (P52333 781-1124): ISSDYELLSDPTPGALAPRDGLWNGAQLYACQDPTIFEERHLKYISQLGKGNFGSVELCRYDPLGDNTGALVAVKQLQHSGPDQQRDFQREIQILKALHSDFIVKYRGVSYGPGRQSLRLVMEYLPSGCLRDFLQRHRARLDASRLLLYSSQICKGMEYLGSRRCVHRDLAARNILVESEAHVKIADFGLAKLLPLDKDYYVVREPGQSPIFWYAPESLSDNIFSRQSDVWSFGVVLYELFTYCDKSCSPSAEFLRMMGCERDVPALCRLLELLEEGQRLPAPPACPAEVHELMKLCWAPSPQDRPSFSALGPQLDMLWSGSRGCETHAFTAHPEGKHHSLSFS

Usually IC50 stands for the concentration at which inhibition is half-maximal. `CN(c1ncnc2[nH]ccc12)[C@H]1CC[C@H](CS(=O)(=O)N2CC[C@H](S(=O)(=O)CCc3ccccc3)C2)CC1` [Example 83, N-methyl-N-{trans-4-[({3-[(2-phenylethyl)-sulfonyl]pyrrolidin-1-yl}sulfonyl)methyl]cyclo-hexyl}-7H-pyrrolo[2,3-d]pyrimidin-4-amine]: the IC50 on JAK2 was 16.7 nM; at JAK3 it was 133 nM; on JAK1 it was 4.79 nM.
The matching figures for `CN(c1ncnc2[nH]ccc12)[C@H]1CC[C@H](CS(=O)(=O)N2CC[C@@](O)(COc3cccc(F)c3)C2)CC1` [Example 84, 3-[(3-fluorophenoxy)-methyl]-1-[({trans-4-[methyl(7H-pyrrolo[2,3-d]-pyrimidin-4-yl)amino]-cyclohexyl}methyl)sulfonyl] pyrrolidin-3-ol]: 26.2 nM, 132 nM and 3.12 nM.
For `Cc1cc(CC[C@]2(O)CCN(S(=O)(=O)C[C@H]3CC[C@H](N(C)c4ncnc5[nH]ccc45)CC3)C2)on1` [Example 85, 3-[2-(3-methylisoxazol-5-yl)ethyl]-1-[({trans-4-[methyl(7H-pyrrolo[2,3-d]-pyrimidin-4-yl)amino]-cyclohexyl}methyl)sulfonyl] pyrrolidin-3-ol] the same measures were 46.2 nM, 286 nM and 10.5 nM.
`CN(c1ncnc2[nH]ccc12)[C@H]1CC[C@H](CS(=O)(=O)N2CC[C@H](c3ncccn3)C2)CC1` [Example 87, N-methyl-N-(trans-4-{[(3-pyrimidin-2-ylpyrrolidin-1-yl)sulfonyl]methyl}cyclo-hexyl)-7H-pyrrolo[2,3-d]pyrimidin-4-amine]: the results for the IC50 at JAK2, at JAK3 and on JAK1 were 5.72 nM, 55.7 nM and 3.27 nM, respectively.
`CN(c1ncnc2[nH]ccc12)[C@H]1CC[C@H](CS(=O)(=O)N2CC[C@H](Oc3ccccc3C#N)C2)CC1` [Example 88, 2-({(3S)-1-[({trans-4-[methyl(7H-pyrrolo[2,3-d]-pyrimidin-4-yl)amino]-cyclohexyl}methyl)sulfonyl]pyrrolidin-3-yl}oxy)-benzonitrile]: the figures for the IC50 at JAK2, on JAK3 and on JAK1 were 23.4 nM, 413 nM and 6.73 nM, respectively.
For `COc1ccccc1CS(=O)(=O)[C@H]1CCN(S(=O)(=O)C[C@H]2CC[C@H](N(C)c3ncnc4[nH]ccc34)CC2)C1` [Example 89, N-{trans-4-[({3-[(2-methoxybenzyl)sulfonyl]-pyrrolidin-1-yl}sulfonyl)-methyl]cyclohexyl}-N-methyl-7H-pyrrolo[2,3-d]-pyrimidin-4-amine] the same measures were 17.5 nM, 96.6 nM and 4.45 nM.
As to `CN(c1ncnc2[nH]ccc12)[C@H]1CC[C@H](CS(=O)(=O)N2CC[C@@](O)(Cn3cccn3)C2)CC1` [Example 90, 1-[({trans-4-[methyl(7H-pyrrolo[2,3-d]pyrimidin-4-yl)amino]cyclohexyl}methyl)-sulfonyl]-3-(1H-pyrazol-1-ylmethyl)pyrrolidin-3-ol], the results for the IC50 on JAK2, at JAK3 and at JAK1 were 9.3 nM, 82.3 nM and 1.8 nM, respectively.
For `CN(c1ncnc2[nH]ccc12)[C@H]1CC[C@H](CS(=O)(=O)N2CC[C@@](O)(c3ccccc3)C2)CC1` [Example 91, 1-[({trans-4-[methyl(7H-pyrrolo[2,3-d]pyrimidin-4-yl)amino]cyclohexyl}-methyl)sulfonyl]-3-phenylpyrrolidin-3-ol] the same measures were 10.8 nM, 76.6 nM and 1.92 nM.
Turning to `CN(C(=O)OC(C)(C)C)[C@H]1CCN(S(=O)(=O)C[C@H]2CC[C@H](N(C)c3ncnc4[nH]ccc34)CC2)C1` [Example 92, tert-butyl methyl{(3S)-1-[({trans-4-[methyl(7H-pyrrolo[2,3-d]pyrimidin-4-yl)amino]cyclohexyl}methyl)-sulfonyl]pyrrolidin-3-yl}carbamate], the IC50 at JAK2 turned out to be 81 nM; at JAK3, 488 nM; at JAK1 it was 6.91 nM.
With `CN(c1ncnc2[nH]ccc12)[C@H]1CC[C@H](CS(=O)(=O)N2CC[C@H](c3ccccc3F)C2)CC1` [Example 93, N-[trans-4-({[3-(2-fluorophenyl)pyrrolidin-1-yl]sulfonyl}methyl)cyclo-hexyl]-N-methyl-7H-pyrrolo[2,3-d]pyrimidin-4-amine], the figures for the IC50 at JAK2, at JAK3 and on JAK1 were 37.4 nM, 286 nM and 5.5 nM, respectively.
For `CCc1ccc(COC[C@H]2CCN(S(=O)(=O)C[C@H]3CC[C@H](N(C)c4ncnc5[nH]ccc45)CC3)C2)nc1` [Example 94, N-(trans-4-{[(3-{[(5-ethylpyridin-2-yl)methoxy]-methyl}pyrrolidin-1-yl)-sulfonyl]methyl}-cyclohexyl)-N-methyl-7H-pyrrolo[2,3-d]pyrimidin-4-amine] the same measures were 63.6 nM, 678 nM and 17.5 nM.
For `CN(c1ncnc2[nH]ccc12)[C@H]1CC[C@H](CS(=O)(=O)N2CC[C@](CO)(CCO)C2)CC1` [Example 95, 2-{3-(hydroxymethyl)-1-[({trans-4-[methyl(7H-pyrrolo[2,3-d]pyrimidin-4-yl)amino]cyclohexyl}-methyl)sulfonyl]pyrrolidin-3-yl}-ethanol], the IC50 on JAK2 was 45.8 nM; at JAK3 it was 612 nM; at JAK1, 12.5 nM.
For `CN(c1ncnc2[nH]ccc12)[C@H]1CC[C@H](CS(=O)(=O)N2CC[C@H](COCc3cccnc3)C2)CC1` [Example 96, N-methyl-N-{trans-4-[({3-[(pyridin-3-ylmethoxy)-methyl]pyrrolidin-1-yl}-sulfonyl)methyl]-cyclohexyl}-7H-pyrrolo[2,3-d]pyrimidin-4-amine] the same measures were 32.1 nM, 462 nM and 19.3 nM.
The matching figures for `CN(c1ncnc2[nH]ccc12)[C@H]1CC[C@H](CS(=O)(=O)N2CC[C@@](O)(CSc3ccccn3)C2)CC1` [Example 97, 1-[({trans-4-[methyl(7H-pyrrolo[2,3-d]pyrimidin-4-yl)-amino]cyclohexyl}-methyl)sulfonyl]-3-[(pyridin-2-ylthio)-methyl]pyrrolidin-3-ol]: 13.1 nM, 85.6 nM and 1.36 nM.
For `CN(c1ncnc2[nH]ccc12)[C@H]1CC[C@H](CS(=O)(=O)N2CC[C@H](OCC(=O)N3CCCC3)C2)CC1` [Example 98, N-methyl-N-[trans-4-({[3-(2-oxo-2-pyrrolidin-1-ylethoxy)pyrrolidin-1-yl]sulfonyl}methyl)cyclo-hexyl]-7H-pyrrolo[2,3-d]pyrimidin-4-amine], the values for the IC50 at JAK2, on JAK3 and on JAK1 were 29.6 nM, 386 nM and 4.37 nM, respectively.
Turning to `CN(c1ncnc2[nH]ccc12)[C@H]1CC[C@H](CS(=O)(=O)N2CC[C@@H](c3ccccc3)C2)CC1` [Example 100, N-methyl-N-(trans-4-{[(3-phenylpyrrolidin-1-yl)sulfonyl]methyl}cyclo-hexyl)-7H-pyrrolo[2,3-d]pyrimidin-4-amine], the IC50 turned out to be 40.7 nM on JAK2, 414 nM on JAK3 and 6.89 nM at JAK1.
For `CCN(CC)C(=O)CO[C@@H]1CCN(S(=O)(=O)C[C@H]2CC[C@H](N(C)c3ncnc4[nH]ccc34)CC2)C1` [Example 101, N,N-diethyl-2-({(3R)-1-[({trans-4-[methyl(7H-pyrrolo[2,3-d]pyrimidin-4-yl)amino]cyclohexyl}-methyl)sulfonyl]pyrrolidin-3-yl}oxy)acetamide] the same measures were 35.9 nM, 584 nM and 4.86 nM.
As to `CN(c1ncnc2[nH]ccc12)[C@H]1CC[C@H](CS(=O)(=O)N2CC[C@H](Cc3cnccn3)C2)CC1` [Example 102, N-methyl-N-[trans-4-({[3-(pyrazin-2-ylmethyl)-pyrrolidin-1-yl]sulfonyl}-methyl)cyclohexyl]-7H-pyrrolo[2,3-d]pyrimidin-4-amine], the results for the IC50 at JAK2, on JAK3 and at JAK1 were 28.6 nM, 283 nM and 19.9 nM, respectively.
As to `CN(c1ncnc2[nH]ccc12)[C@H]1CC[C@H](CS(=O)(=O)N2CC[C@](O)(c3ccccn3)C2)CC1` [Example 103, 1-[({trans-4-[methyl(7H-pyrrolo[2,3-d]pyrimidin-4-yl)-amino]cyclohexyl}-methyl)sulfonyl]-3-pyridin-2-ylpyrrolidin-3-ol], the IC50 stood at 35.8 nM at JAK2, 294 nM at JAK3 and 10.6 nM on JAK1.
Take `CN(c1ncnc2[nH]ccc12)[C@H]1CC[C@H](CS(=O)(=O)N2CC[C@H](Cc3ccccc3)C2)CC1` [Example 104, N-(trans-4-{[(3-benzyl-pyrrolidin-1-yl)sulfonyl]-methyl}cyclohexyl)-N-methyl-7H-pyrrolo[2,3-d]-pyrimidin-4-amine]: the IC50 on JAK2 was found to be 65.4 nM; on JAK3, 721 nM; on JAK1 it was 18 nM.
As for `CCN1CCN(C[C@H]2CCN(S(=O)(=O)C[C@H]3CC[C@H](N(C)c4ncnc5[nH]ccc45)CC3)C2)C(=O)C1=O` [Example 105, 1-ethyl-4-({1-[({trans-4-[methyl(7H-pyrrolo[2,3-d]pyrimidin-4-yl)amino]cyclohexyl}methyl)-sulfonyl]pyrrolidin-3-yl}methyl)piperazine-2,3-dione], the IC50 at JAK2 came out at 90.4 nM; on JAK3, 755 nM; on JAK1, 17.8 nM.
For `Cc1cccc(C[C@H]2CCCN2S(=O)(=O)C[C@H]2CC[C@H](N(C)c3ncnc4[nH]ccc34)CC2)n1` [Example 106, N-methyl-N-{trans-4-[({2-[(6-methylpyridin-2-yl)methyl]pyrrolidin-1-yl}sulfonyl)methyl]cyclo-hexyl}-7H-pyrrolo[2,3-d]pyrimidin-4-amine] the same measures were 24.3 nM, 322 nM and 3.6 nM.
